Results taken from patent publication US20240041042A1, “1-(PYRIDYL)-5-AZINYLPYRAZOLE DERIVATIVES, AND THEIR USE FOR CONTROL OF UNDESIRED PLANT GROWTH” (Bayer Aktiengesellschaft, priority 2020, published 2024).
Read-outs that look alike come from different tables or passages of the source.

Experiments:
Format in all cases: in vivo
Viola tricolor (VIOTR) [1] = assay: Post-emergence herbicidal action against VIOTR
Method: (§1) Seeds of monocotyledonous and dicotyledonous weeds and crop plants are placed in sandy loam in plastic or organic planting pots, covered with soil and cultivated in a greenhouse under controlled growth conditions. 2 to 3 weeks after sowing, the test plants are treated at the one-leaf stage. The compounds of the invention, formulated in the form of wettable powders (WP) or as emulsion concentrates (EC), are then sprayed onto the green parts of the plants as aqueous suspension or emulsion with addition of 0.5% additive at a water application rate of 600 l/ha (converted). After the test plants have been kept in the greenhouse under optimum growth conditions for about 3 weeks, the activity of the preparations is rated visually in comparison to untreated controls. For example, 100% activity=the plants have died, 0% activity=like control plants.
(§2) Tables B1 to B13 below show the effects of selected compounds of the general formula (I) according to Table 1 on various harmful plants and at an application rate corresponding to 320 g/ha or lower, which were obtained by the experimental procedure mentioned above. The appendices “a”, “b” and “c” give differentiation by dosage used with otherwise the same harmful plants tested.

Avena fatua (AVEFA) [2] = assay: Post-emergence herbicidal action against AVEFA; settings: visual rating about 3 weeks after treatment
Method: as §1, §2

[3] = test system: Amaranthus retroflexus (AMARE); assay: Post-emergence herbicidal action against AMARE
Method: as §1, §2

[4] = test system: Abutilon theophrasti (ABUTH); assay: Post-emergence herbicidal action against ABUTH; settings: visual rating about 3 weeks after treatment vs untreated controls (100% = plants have died, 0% = like control plants)
Method: as §1, §2

Zea mays (ZEAMX) = settings: for Post-emergence action against ZEAMX in %: crop plant compatibility, 80 g/ha, effect vs untreated controls
Method: as §1
(§3) The observed effects on selected crop plants are reported here in comparison to the untreated controls (values in %). The appendices “a”, “b” and “c” give differentiation by dosage used with otherwise the same crop plants tested.

Oryza sativa (ORYSA) = settings: crop plant compatibility
Method: as §1, §3

Viola tricolor (VIOTR) [5] = assay: Pre-emergence herbicidal action against VIOTR
Excerpt: (§4) Seeds of monocotyledonous and dicotyledonous weed plants and crop plants are placed in plastic or organic planting pots and covered with soil. The compounds of the invention, formulated in the form of wettable powders (WP) or as emulsion concentrates (EC), are then applied to the surface of the covering soil as aqueous suspension or emulsion with addition of 0.5% additive at a water application rate equivalent to 600 l/ha. After the treatment, the pots are placed in a greenhouse and kept under good growth conditions for the trial plants. After about 3 weeks, the effect of the preparations is scored visually in comparison with untreated controls as percentages. For example, 100% activity=the plants have died, 0% activity=like control plants.
(§5) Tables A1 to A13 below show the effects of selected compounds of the general formula (I) on various harmful plants and at an application rate corresponding to 320 g/ha or lower, which were obtained by the experimental procedure mentioned above. The appendices “a”, “b” and “c” give differentiation by dosage used with otherwise the same harmful plants tested.

[6] = test system: Amaranthus retroflexus (AMARE); assay: Pre-emergence herbicidal action against AMARE; settings: visual scoring after about 3 weeks vs untreated controls
Excerpt: as §4, §5

Setaria viridis (SETVI) [7] = assay: Pre-emergence herbicidal action against SETVI
Excerpt: as §4, §5

[8] = test system: Verconica persica (VERPE); assay: Post-emergence herbicidal action against VERPE; settings: 320 g/ha, VERPE
Method: as §1, §2

Setaria viridis (SETVI) [9] = assay: Post-emergence herbicidal action against SETVI
Method: as §1, §2

[10] = test system: Alopecurus myosuroides (ALOMY); assay: Pre-emergence herbicidal action against ALOMY; settings: scored visually after about 3 weeks, 100% = plants have died
Excerpt: as §4, §5

Avena fatua (AVEFA) [11] = assay: Pre-emergence herbicidal action against AVEFA; settings: 320 g/ha, visual scoring after about 3 weeks vs untreated controls
Excerpt: as §4, §5

Lolium rigidum (LOLRI) [12] = assay: Post-emergence herbicidal action against LOLRI
Method: as §1, §2

[13] = test system: Polygonum convolvulus (POLCO); assay: Post-emergence herbicidal action against POLCO
Method: as §1, §2

[14] = test system: Pharbitis purpurea (PHBPU); assay: Pre-emergence herbicidal action against PHBPU; settings: dosage 320 g/ha
Excerpt: as §4, §5

[15] = test system: Alopecurus myosuroides (ALOMY); assay: Post-emergence herbicidal action against ALOMY; settings: visual rating about 3 weeks after treatment vs untreated controls (100% = plants have died, 0% = like control plants)
Method: as §1, §2

[16] = test system: Echinochloa crus-galli (ECHCG); assay: Pre-emergence herbicidal action against ECHCG
Excerpt: as §4, §5

Lolium rigidum (LOLRI) [17] = assay: Pre-emergence herbicidal action against LOLRI
Excerpt: as §4, §5

[18] = test system: Polygonum convolvulus (POLCO); assay: Pre-emergence herbicidal action against POLCO
Excerpt: as §4, §5

[19] = test system: Echinochloa crus-galli (ECHCG); assay: Post-emergence herbicidal action against ECHCG
Method: as §1, §2

[20] = test system: Verconica persica (VERPE); assay: Pre-emergence herbicidal action against VERPE
Excerpt: as §4, §5

[21] = test system: Pharbitis purpurea (PHBPU); assay: Post-emergence herbicidal action against PHBPU
Method: as §1, §2

[22] = test system: Matricaria inodora (MATIN); assay: Pre-emergence herbicidal action against MATIN; settings: dosage 320 g/ha
Excerpt: as §4, §5

[23] = 320 g/ha, visual rating about 3 weeks after treatment
[24] = 80 g/ha, effect in comparison to untreated controls
[25] = 320 g/ha, effect in comparison to untreated controls
[26] = 80 g/ha, visual rating about 3 weeks after treatment vs untreated controls (100% = plants have died, 0% = like control plants)

Compound | Post-emergence action against AVEFA in % (Avena fatua (AVEFA) [2]; 80 g/ha) | Post-emergence action against AVEFA in % (Avena fatua (AVEFA) [2]; 320 g/ha) | Post-emergence action against AMARE in % [3, 23] | Post-emergence action against ZEAMX in % (Zea mays (ZEAMX)) | Post-emergence action against ORYSA in % (Oryza sativa (ORYSA); [24]) | Post-emergence action against ORYSA in % (Oryza sativa (ORYSA); [25]) | Pre-emergence action against VIOTR in % (Viola tricolor (VIOTR) [5]; 320 g/ha, Viola tricolor) | Pre-emergence action against VIOTR in % (Viola tricolor (VIOTR) [5]; dosage 80 g/ha) | Pre-emergence action against AMARE in % ([6]; 80 g/ha) | Pre-emergence action against AMARE in % ([6]; 320 g/ha) | Pre-emergence action against SETVI in % (Setaria viridis (SETVI) [7]; dosage 320 g/ha) | Post-emergence action against VERPE in % [8] | Post-emergence action against SETVI in % (Setaria viridis (SETVI) [9]; dosage 320 g/ha) | Pre-emergence action against ALOMY ([10]; 80 g/ha) | Pre-emergence action against ALOMY ([10]; 320 g/ha) | Pre-emergence action against AVEFA in % (Avena fatua (AVEFA) [11]) | Post-emergence action against POLCO in % ([13]; dosage 80 g/ha) | Pre-emergence action against PHBPU in % [14] | Pre-emergence action against LOLRI in % (Lolium rigidum (LOLRI) [17]; dosage 320 g/ha) | Pre-emergence action against POLCO in % ([18]; dosage 320 g/ha) | further results
COC(=O)C(C)NC(=O)[C@@H](C)Oc1nn(-c2ccccn2)c(-c2ccc(F)nc2)c1Cl (stereo partly shown) [Example I-358] | 90% | 90% | 90% | 0% | 0% | 0% | 100% | 80% | 80% | 100% | 100% | 80% | 90% | 80% | 100% | 80% | 90% | 80% | 100% | 90% | Post-emergence action against VIOTR in % (Viola tricolor (VIOTR) [1]; 80 g/ha): 90%; Post-emergence action against VIOTR in % (Viola tricolor (VIOTR) [1]; 320 g/ha): 90%; Post-emergence action against ABUTH in % ([4]; 320 g/ha): 80%; Post-emergence action against LOLRI in % (Lolium rigidum (LOLRI) [12]; dosage 80 g/ha): 90%; Post-emergence action against LOLRI in % (Lolium rigidum (LOLRI) [12]; dosage 320 g/ha): 90%; Post-emergence action against POLCO in % ([13]; dosage 320 g/ha): 90%; Post-emergence action against ALOMY in % ([15]; 80 g/ha): 90%; Post-emergence action against ALOMY in % ([15]; 320 g/ha): 90%; Pre-emergence action against ECHCG in % ([16]; dosage 320 g/ha): 100%; Pre-emergence action against LOLRI in % (Lolium rigidum (LOLRI) [17]; dosage 80 g/ha): 100%; Pre-emergence action against POLCO in % ([18]; dosage 80 g/ha): 80%; Post-emergence action against ECHCG in % ([19]; dosage 320 g/ha): 90%
CCOC(=O)C(C)Oc1nn(-c2ccccn2)c(-c2ccc(F)nc2)c1Br (stereo not shown) [Example I-102] | 90% | – | – | 20% | 0% | – | 100% | 90% | 80% | 90% | 100% | – | – | 100% | 100% | 90% | 90% | 80% | 100% | 90% | Post-emergence action against AMARE in % [3, 26]: 80%; Post-emergence action against ABUTH in % ([4]; 80 g/ha): 80%; Post-emergence action against ZEAMX in % (crop plant compatibility) (Zea mays (ZEAMX); 20 g/ha, ZEAMX, effect in comparison to untreated controls): 0%; Post-emergence action against ORYSA in % (Oryza sativa (ORYSA); 20 g/ha, effect vs untreated controls): 0%; Pre-emergence action against SETVI in % (Setaria viridis (SETVI) [7]; dosage 80 g/ha): 90%; Pre-emergence action against VERPE in % ([20]; dosage 320 g/ha): 80%; Post-emergence action against LOLRI in % (Lolium rigidum (LOLRI) [12]; dosage 80 g/ha): 90%; Post-emergence action against ALOMY in % ([15]; 80 g/ha): 90%; Pre-emergence action against LOLRI in % (Lolium rigidum (LOLRI) [17]; dosage 80 g/ha): 80%
C[C@H](NC(=O)COc1nn(-c2ccccn2)c(-c2cncc(F)c2)c1Br)C(=O)O [Example I-80] | 80% | 80% | 80% | 20% | 20% | 20% | 90% | – | 90% | 90% | 100% | 80% | 80% | 100% | 100% | 90% | 80% | 90% | 100% | 90% | Post-emergence action against AMARE in % [3, 26]: 80%; Pre-emergence action against SETVI in % (Setaria viridis (SETVI) [7]; dosage 80 g/ha): 90%; Pre-emergence action against VERPE in % ([20]; dosage 320 g/ha): 90%; Post-emergence action against POLCO in % ([13]; dosage 320 g/ha): 80%; Post-emergence action against ALOMY in % ([15]; 320 g/ha): 90%; Pre-emergence action against ECHCG in % ([16]; dosage 320 g/ha): 100%; Post-emergence action against PHBPU in % ([21]; dosage 80 g/ha): 80%; Post-emergence action against PHBPU in % ([21]; dosage 320 g/ha): 80%; Pre-emergence action against MATIN in % [22]: 90%; Post-emergence action against ECHCG in % ([19]; dosage 80 g/ha): 80%; Post-emergence action against ECHCG in % ([19]; dosage 320 g/ha): 80%
CC(NC(=O)[C@@H](C)Oc1nn(-c2ccccn2)c(-c2ccc(F)nc2)c1Cl)C(=O)O (stereo partly shown) [Example I-350] | 90% | 90% | 90% | – | 0% | 10% | 100% | 100% | 100% | 100% | 100% | 90% | 90% | 100% | 100% | 100% | 80% | 80% | 100% | 90% | Post-emergence action against VIOTR in % (Viola tricolor (VIOTR) [1]; 80 g/ha): 90%; Post-emergence action against VIOTR in % (Viola tricolor (VIOTR) [1]; 320 g/ha): 90%; Post-emergence action against AMARE in % [3, 26]: 90%; Post-emergence action against ABUTH in % ([4]; 320 g/ha): 90%; Pre-emergence action against SETVI in % (Setaria viridis (SETVI) [7]; dosage 80 g/ha): 100%; Post-emergence action against SETVI in % (Setaria viridis (SETVI) [9]; dosage 80 g/ha): 80%; Pre-emergence action against VERPE in % ([20]; dosage 80 g/ha): 90%; Pre-emergence action against VERPE in % ([20]; dosage 320 g/ha): 100%; Post-emergence action against LOLRI in % (Lolium rigidum (LOLRI) [12]; dosage 80 g/ha): 80%; Post-emergence action against LOLRI in % (Lolium rigidum (LOLRI) [12]; dosage 320 g/ha): 90%; Post-emergence action against POLCO in % ([13]; dosage 320 g/ha): 90%; Post-emergence action against ALOMY in % ([15]; 320 g/ha): 90%; Pre-emergence action against ECHCG in % ([16]; dosage 80 g/ha): 100%; Pre-emergence action against ECHCG in % ([16]; dosage 320 g/ha): 100%; Pre-emergence action against MATIN in % [22]: 90%; Pre-emergence action against LOLRI in % (Lolium rigidum (LOLRI) [17]; dosage 80 g/ha): 100%; Pre-emergence action against POLCO in % ([18]; dosage 80 g/ha): 90%; Post-emergence action against ECHCG in % ([19]; dosage 80 g/ha): 80%; Post-emergence action against ECHCG in % ([19]; dosage 320 g/ha): 90%
